Reference: PubChem BioAssay AID1963980 (Molecular Pharmacology Branch, DTP, NCI, 2024)
Each block holds one compound with its values, some of them ahead of it.

Tested on: 475296-252-R-J1-PDC spheroid viability
Assay: Anticancer human tumor 475296-252-R-J1-PDC patient-derived rectal carcinoma cell line growth inhibition [PI3K]
Details: spheroids with HUVEC and MSC; for IC50: curve of first compound; for viability, T/C: stronger effect = lower value
Description: Combinatorial screen of targeted agents with the PI3K inhibitors inavolisib, alpelisib, duvelisib, and copanlisib in multi-cell type tumor spheroids
A high-throughput screen of multi-cell type tumor spheroids was designed to identify active combinations of targeted small molecules and PI3K pathway inhibitors. Complex spheroids include a stromal component modeled by human endothelial cells (HUVEC) and fibroblasts modeled by human mesenchymal stem cells (MSCs). The concentration ranges selected for each drug and investigational agent were based upon clinically achievable concentrations if the clinical Cmax of the agent was known.
Compounds. The drugs and investigational agents: inavolisib (NSC800729), alpelisib (NSC765974), duvelisib (NSC772469), copanlisib (NSC816437), ipatasertib (NSC767898), afuresertib (NSC778305), talazoparib (NSC767125), sapanisertib (NSC764658), selumetinib (NSC741078), tovorafenib (DAY101, NSC766906), vemurafenib (NSC761431), ravoxertinib (NSC781343), sotorasib (NSC818433), MRTX1133 (NSC 836407), abemaciclib (NSC 768073), palbociclib (NSC758247), venetoclax (NSC 766270), SY5609 (NSC837396), enzalutamide (NSC755605), and darolutamide (NSC825331), were obtained from the National Cancer Institute (NCI) Developmental Therapeutics Program Chemical Repository. The FDA-approved anticancer drug set is available from the NCI Developmental Therapeutics Program. […] The stock solutions were prepared in dimethyl sulfoxide (DMSO, Sigma-Aldrich, St. Louis, MO, cat. D2650) at 800-fold the tested concentration and stored at -70 degrees C prior to their use. All drugs and investigational agents were tested over a range starting from a high concentration at or near the clinical Cmax and decreasing in half-log increments. If the clinical Cmax for an agent had not been determined, the highest concentration tested was 10 microM.
Cell Culture. All cells were maintained in an incubator at 37 degrees C and 5% CO2 with 95% humidity. The PDC lines were cultured according to standard operating procedures established by the NCI PDMR (https://pdmr.cancer.gov/sops/default.htm). All PDCs were thawed and cultured in Matrigel-coated flasks prepared with a working solution of 1X Ham's F-12 nutrient mix, without supplementation (Invitrogen, Waltham, MA, cat. 11765054), 100 U/mL penicillin-streptomycin (Invitrogen, cat. 15140122), and 2.5% Matrigel (Corning Inc., Corning, NY, cat. 354248) for the first three passages. The 354836-022-R-J1-PDC, 475296-252-R-J1-PDC, and 997726-040-R-J2-PDC lines were cultured in 6A media, which includes advanced DMEM/F-12 (Thermo Fisher Scientific, cat. 12634028), 10 mM HEPES (Thermo Fisher Scientific, cat. 15630080), 1X GlutaMAX supplement (Thermo Fisher Scientific, cat. 35050061), 0.1 mg/mL primocin (InvivoGen, San Diego, CA, cat. ant-pm-2), 10% defined fetal bovine serum, heat inactivated (HyClone Laboratories Inc., Logan, UT, cat. SH30070.03HI), 50% L-WRN conditioned media (ATCC, cat. CRL-3276), 1.25 mM N-Acetyl-L-cysteine (Sigma-Aldrich, cat. A9165), 10 mM nicotinamide (Sigma-Aldrich, cat. N0636), 1X B-27 supplement (Thermo Fisher Scientific, cat. 17504044), 1X N-2 supplement (Thermo Fisher Scientific, cat. 17502048), and 10 microM Y-27632 dihydrochloride (Tocris Bioscience, Bristol, United Kingdom, cat. 1254). The 624824-186-R-J2-PDC line was cultured in 6C/Colon 1B media, which includes all 6A media components plus 50 ng/mL human EGF recombinant protein (Thermo Fisher Scientific, cat. PHG0311). […]

[1] = second compound 0.00316 µM, first compound 0.0316 µM
[2] = second compound 0.00316 µM, first compound 0.1 µM
[3] = second compound 0.01 µM, first compound 0.0316 µM
[4] = second compound 0.01 µM, first compound 0.1 µM
[5] = second compound 0.0316 µM, first compound 0.0316 µM
[6] = second compound 0.0316 µM, first compound 0.1 µM
[7] = second compound 0.1 µM, first compound 0.0316 µM
[8] = second compound 0.1 µM, first compound 0.1 µM
[9] = second compound 0.316 µM, first compound 0.0316 µM
[10] = second compound 0.316 µM, first compound 0.1 µM
[11] = second compound 1 µM, first compound 0.0316 µM
[12] = second compound 1 µM, first compound 0.1 µM
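Also: spheroids exposed to agents for seven days before readout.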

IC50 (second compound 0.00316 µM): > 0.1 µM
IC50 (second compound 0.01 µM): > 0.1 µM
IC50 (second compound 0.0316 µM): > 0.1 µM
IC50 (second compound 0.1 µM): > 0.1 µM
IC50 (second compound 0.316 µM): > 0.1 µM
IC50 (second compound 1 µM): > 0.1 µM
Compound: CC(=O)c1c(C)c2cnc(Nc3ccc(N4CCNCC4)cn3)nc2n(C2CCCC2)c1=O + CC(Nc1ccc2c(c1)OCCn1cc(N3C(=O)OCC3C(F)F)nc1-2)C(N)=O
viability, T/C (second compound 0.00316 µM, first compound 0.000316 µM): 93.5%
viability, T/C (second compound 0.00316 µM, first compound 0.001 µM): 86.6%
viability, T/C (second compound 0.00316 µM, first compound 0.00316 µM): 101%
viability, T/C (second compound 0.00316 µM, first compound 0.01 µM): 93.5%
viability, T/C [1]: 119%
viability, T/C [2]: 97.2%
viability, T/C (second compound 0.01 µM, first compound 0.000316 µM): 102%
viability, T/C (second compound 0.01 µM, first compound 0.001 µM): 91.3%
viability, T/C (second compound 0.01 µM, first compound 0.00316 µM): 94%
viability, T/C (second compound 0.01 µM, first compound 0.01 µM): 83.2%
viability, T/C [3]: 97%
viability, T/C [4]: 100%
viability, T/C (second compound 0.0316 µM, first compound 0.000316 µM): 97.5%
viability, T/C (second compound 0.0316 µM, first compound 0.001 µM): 101%
viability, T/C (second compound 0.0316 µM, first compound 0.00316 µM): 91.3%
viability, T/C (second compound 0.0316 µM, first compound 0.01 µM): 93.5%
viability, T/C [5]: 104%
viability, T/C [6]: 110%
viability, T/C (second compound 0.1 µM, first compound 0.000316 µM): 90.4%
viability, T/C (second compound 0.1 µM, first compound 0.001 µM): 91.8%
viability, T/C (second compound 0.1 µM, first compound 0.00316 µM): 100%
viability, T/C (second compound 0.1 µM, first compound 0.01 µM): 103%
viability, T/C [7]: 96.1%
viability, T/C [8]: 88.6%
viability, T/C (second compound 0.316 µM, first compound 0.000316 µM): 93.5%
viability, T/C (second compound 0.316 µM, first compound 0.001 µM): 96.2%
viability, T/C (second compound 0.316 µM, first compound 0.00316 µM): 83%
viability, T/C (second compound 0.316 µM, first compound 0.01 µM): 85.4%
viability, T/C [9]: 109%
viability, T/C [10]: 91.7%
viability, T/C (second compound 1 µM, first compound 0.000316 µM): 85.4%
viability, T/C (second compound 1 µM, first compound 0.001 µM): 90.1%
viability, T/C (second compound 1 µM, first compound 0.00316 µM): 87.2%
viability, T/C (second compound 1 µM, first compound 0.01 µM): 91.2%
viability, T/C [11]: 93.2%
viability, T/C [12]: 100%

IC50 (second compound 0.00316 µM): > 10 µM
IC50 (second compound 0.01 µM): > 10 µM
IC50 (second compound 0.0316 µM): > 10 µM
IC50 (second compound 0.1 µM): > 10 µM
IC50 (second compound 0.316 µM): > 10 µM
IC50 (second compound 1 µM): > 10 µM
Compound: CNC(=O)c1ccc(N2C(=S)N(c3ccc(C#N)c(C(F)(F)F)c3)C(=O)C2(C)C)cc1F + CC(Nc1ccc2c(c1)OCCn1cc(N3C(=O)OCC3C(F)F)nc1-2)C(N)=O
viability, T/C [1]: 98.4%
viability, T/C [2]: 85%
viability, T/C (second compound 0.00316 µM, first compound 0.316 µM): 102%
viability, T/C (second compound 0.00316 µM, first compound 1 µM): 84.3%
viability, T/C (second compound 0.00316 µM, first compound 3.16 µM): 100%
viability, T/C (second compound 0.00316 µM, first compound 10 µM): 104%
viability, T/C [3]: 95.4%
viability, T/C [4]: 90.4%
viability, T/C (second compound 0.01 µM, first compound 0.316 µM): 102%
viability, T/C (second compound 0.01 µM, first compound 1 µM): 93%
viability, T/C (second compound 0.01 µM, first compound 3.16 µM): 99.3%
viability, T/C (second compound 0.01 µM, first compound 10 µM): 85.1%
viability, T/C [5]: 94.6%
viability, T/C [6]: 87.7%
viability, T/C (second compound 0.0316 µM, first compound 0.316 µM): 94.2%
viability, T/C (second compound 0.0316 µM, first compound 1 µM): 99.9%
viability, T/C (second compound 0.0316 µM, first compound 3.16 µM): 96.9%
viability, T/C (second compound 0.0316 µM, first compound 10 µM): 103%
viability, T/C [7]: 87.1%
viability, T/C [8]: 93.6%
viability, T/C (second compound 0.1 µM, first compound 0.316 µM): 90%
viability, T/C (second compound 0.1 µM, first compound 1 µM): 100%
viability, T/C (second compound 0.1 µM, first compound 3.16 µM): 97.5%
viability, T/C (second compound 0.1 µM, first compound 10 µM): 91.3%
viability, T/C [9]: 87.7%
viability, T/C [10]: 93.8%
viability, T/C (second compound 0.316 µM, first compound 0.316 µM): 84.9%
viability, T/C (second compound 0.316 µM, first compound 1 µM): 94.3%
viability, T/C (second compound 0.316 µM, first compound 3.16 µM): 92.5%
viability, T/C (second compound 0.316 µM, first compound 10 µM): 90.9%
viability, T/C [11]: 98.1%
viability, T/C [12]: 89%
viability, T/C (second compound 1 µM, first compound 0.316 µM): 91.3%
viability, T/C (second compound 1 µM, first compound 1 µM): 84%
viability, T/C (second compound 1 µM, first compound 3.16 µM): 94.3%
viability, T/C (second compound 1 µM, first compound 10 µM): 80.8%
